Structures can show the parent of a compound that is named as a salt.
Key:
[1] = test system: Jurkat (T-lymphoblastic leukemia) cells; experiment: cells; type: cell-based; settings: Homo sapiens, Jurkat, mean ± SE, at least three experiments in duplicate; viable cells; read-out: IC50 Jurkat
Method in brief: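 Suspension lines in RPMI 1640 with 10% FBS at 37 °C, 5% CO2, treated with compounds at 1, 5, 10, 15, 30 and 60 μM. Live/dead status by 7-AAD staining (15 min, room temperature, dark) read on flow cytometer, 488 nm excitation, 675/30 nm emission.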

[2] = test system: HeLa (cervical cancer) cells; experiment: Cytotoxicity assay (7-AAD viability, flow cytometry), HeLa; type: cell-based, human; settings: Homo sapiens, HeLa, mean ± SE, at least three experiments in duplicate; viable cells
Method in brief: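 Adherent HeLa, HEK293 and normal human fibroblasts (5 × 10⁴/well, DMEM with 10% FBS, 37 °C, 5% CO2) were treated with compounds at 1, 5, 10, 15, 30 and 60 μM. Viability was read as 7-AAD exclusion by flow cytometry after 15 min staining.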

[3] = test system: Jurkat cells; experiment: Annexin V/7-AAD apoptosis assay by flow cytometry; type: cell-based, human; settings: 48 h
Method: Apoptosis was determined by flow cytometric analysis of Annexin V and 7-aminoactinomycin D staining. Briefly, 200 μL of Guava Nexin reagent (Millipore, Bedford, MA, USA) was added to 5 × 10^5 cells in 200 μL, and the cells were incubated with the reagent for 20 min at room temperature in the dark. […] At the end of incubation, the cells were analyzed on NovoCyteTM 2000 FlowCytometry System (ACEA). Different states of cell death were defined as follows: normal cells are localized in the lower-left quadrant (Annexin V^−/PI^−); early apoptotic cells are in the lower-right quadrant (Annexin V^+/PI^−); late apoptotic cells and necrotic cells are in the upper-right quadrant (Annexin V^+/PI^+); and necrotic cells are in the upper-left quadrant (Annexin V^−/PI^+).
Figure 2 AnnexinV/7-AAD staining upon induction of apoptosis in Jurkat cells. […] Then, the cells were harvested, stained with Annexin V/7-AAD and analyzed by flow cytometry. The experiments were performed three times, and the results of the representative experiments are shown. The first cytogram represents an untreated cell sample (A); after incubation with dihydrobetulinic acid for 24 h (B) and for 48 h (C); after incubation with compound 15 for 24 h (D) and for 48 h (E); after incubation with compound 15c for 24 h (F) and for 48 h (G); after incubation with compound 18c for 24 h (H) and for 48 h (I); after incubation with compound 20c for 24 h (J) and for 48 h (K). Q7-1, necrotic cells; Q7-2, late apoptotic cells; Q7-3, living cells; Q7-4, early apoptotic cells. TEXT PRINTED IN THE PICTURE: (B) Dihydro BA: Q7-1 0.96% (59 μM); Q7-2 12.11% (59 μM); Q7-3 80.09% (59 μM); Q7-4 6.84% (59 μM) | (C) Dihydro BA: Q7-1 2.34% (59 μM); Q7-2 20.53% (59 μM); Q7-3 73.11% (59 μM); Q7-4 4.02% (59 μM) | (D) Compound 15: Q7-1 3.08% (4 μM); Q7-2 2.24% (4 μM); Q7-3 92.34% (4 μM); Q7-4 2.34% (4 μM) | (E) Compound 15: Q7-1 5.53% (4 μM); Q7-2 91.79% (4 μM); Q7-3 0.58% (4 μM); Q7-4 2.10% (4 μM) | (F) Compound 15c: Q7-1 1.51% (4 μM); Q7-2 2.64% (4 μM); Q7-3 84.92% (4 μM); Q7-4 10.93% (4 μM) | (G) Compound 15c: Q7-1 21.72% (4 μM); Q7-2 16.54% (4 μM); Q7-3 54.49% (4 μM); Q7-4 7.25% (4 μM) | (H) Compound 18c: Q7-1 1.48% (4 μM); Q7-2 3.70% (4 μM); Q7-3 91.14% (4 μM); Q7-4 3.67% (4 μM) | (I) Compound 18c: Q7-1 20.73% (4 μM); Q7-2 14.32% (4 μM); Q7-3 58.16% (4 μM); Q7-4 6.79% (4 μM) | (J) Compound 20c: Q7-1 3.78% (8 μM); Q7-2 1.72% (8 μM); Q7-3 92.26% (8 μM); Q7-4 2.24% (8 μM) | (K) Compound 20c: Q7-1 6.09% (8 μM); Q7-2 7.35% (8 μM); Q7-3 78.36% (8 μM); Q7-4 8.20% (8 μM) DOUBTS OF THE COPYIST ABOUT THIS PICTURE: Panel A (Control, untreated cells: Q7-1 3.75%, Q7-2 0.00%, Q7-3 96.24%, Q7-4 0.01%) left out of lines because it is not a substance / Dihydro BA panel B, Q7-3: 80.09% partly overlaid by plot points, 80.09 or 80.03 / Dihydro BA panel C, Q7-3: 73.11% partly overlaid by plot points / Compound 18c panel I, Q7-3: 58.16% small print, 58.16 or 58.18 / Compound 15 panel E, Q7-3: 0.58% small print, 0.58 or 0.56

[4] = at IC50 concentration (59 μM Dihydro BA; 4 μM 15, 15c, 18c; 8 μM 20c)

Structure (SMILES) | IC50 [1] [µM] | IC50 [2] [µM] | late apoptotic cells (Q7-2) [3, 4] [%] | early apoptotic cells (Q7-4) [3, 4] [%] | living (vital) cells (Q7-3) [3, 4] [%] | necrotic cells (Q7-1) [3, 4] [%] | total number of apoptotic cells (early + late) ([3]; at IC50 concentration (59 μM Dihydro BA; 4 μM 15c; 8 μM 20c)) [%]
CC(=O)O[C@H]1CC[C@@]2(C)C(CC[C@]3(C)C2CCC2C4C(C(C)C)CC[C@]4(C(=O)OCC(N)(CO)CO)CC[C@]23C)C1(C)C (stereo partly drawn) [Compound 15, 3β-[2-Amino-3-hydroxy-2-(hydroxymethyl)propyl]-3-O-acetyl-lupane-28-oate] | 3.3 ± 0.11 | 19 ± 0.49 | 91.7 |  |  |  | 
CC(=O)O[C@H]1CC[C@@]2(C)C(CC[C@]3(C)C2CCC2C4C(C(C)C)CC[C@]4(C(=O)OCC(CO)(CO)NC(=N)N)CC[C@]23C)C1(C)C (stereo partly drawn) [Compound 15c, 3β-[2-Guanidine-3-hydroxy-2-(hydroxymethyl)propyl]-3-O-acetyl-lupane-28-oate hydrochloride] | 3.1 ± 0.41 | 14 ± 0.31 | 16.5 | 7.2 | 54.5 | 21.7 | 23.7
